Experiments:
Type in all cases: cell-based
[1] = system: Buttiauxella agrestis 05 04 166; test: pH variation detection on modified chromID Coli medium (Example 6); parameters: Coloration strength: key to the marks not given beside the values; details: 50 mg/l, 24 h 37° C.
Method: (§1) The media were incubated for 24 hours at 37° C., then the spots formed were examined visually.

[2] = system: Cedecea lapagei 05 04 130; test: as above; parameters: Coloration strength: key to the marks not given beside the values; details: 50 mg/l, 24 h 37° C.
Method: as §1

[3] = system: Citrobacter braakii 05 06 109; test: as above; parameters: Coloration strength: key to the marks not given beside the values; details: 50 mg/l, 24 h 37° C.
Method: as §1

[4] = system: Citrobacter koseri 75 08 021; test: as above; parameters: Coloration strength: key to the marks not given beside the values; details: 50 mg/l, 24 h 37° C.
Method: as §1

[5] = system: E. coli 05 04 163; test: as above; parameters: Coloration strength: key to the marks not given beside the values; details: 50 mg/l, 24 h 37° C.
Method: as §1

[6] = system: E. coli 05 06 052; test: as above; parameters: Coloration strength: key to the marks not given beside the values; details: 50 mg/l, 24 h 37° C.
Method: as §1

[7] = system: E. coli 78 12 004; test: as above; parameters: Coloration strength: key to the marks not given beside the values; details: 50 mg/l, 24 h 37° C.
Method: as §1

[8] = system: Edwarsiella tarda 75 07 053; test: as above; parameters: Coloration strength: key to the marks not given beside the values; details: 50 mg/l, 24 h 37° C.
Method: as §1

[9] = system: Enterobacter amnigenus 05 06 046; test: as above; parameters: Coloration strength: key to the marks not given beside the values; details: 50 mg/l, 24 h 37° C.
Method: as §1

[10] = system: Enterobacter cloacae 05 09 064; test: as above; parameters: Coloration strength: key to the marks not given beside the values; details: 50 mg/l, 24 h 37° C.
Method: as §1

[11] = system: Escherichia hermannii 04 03 161; test: as above; parameters: Coloration strength: key to the marks not given beside the values; details: 50 mg/l, 24 h 37° C.
Method: as §1

[12] = system: Escherichia vulneris 85 06 777; test: as above; parameters: Coloration strength: key to the marks not given beside the values; details: 50 mg/l, 24 h 37° C.
Method: as §1

[13] = system: Ewingella americana 05 06 045; test: as above; parameters: Coloration strength: key to the marks not given beside the values; details: 50 mg/l, 24 h 37° C.
Method: as §1

[14] = system: Klebsiella pneumoniae ssp pneumoniae 73 08 012; test: as above; parameters: Coloration strength: key to the marks not given beside the values; details: 50 mg/l, 24 h 37° C.
Method: as §1

[15] = system: Morganella morganii ssp morganii 97 08 046; test: as above; parameters: Coloration strength: key to the marks not given beside the values; details: 50 mg/l, 24 h 37° C.
Method: as §1

[16] = system: Pectobacterium carotovorum 84 06 059; test: as above; parameters: Coloration strength: key to the marks not given beside the values; details: 50 mg/l, 24 h 37° C.
Method: as §1

[17] = system: Salmonella ser. Enteritidis 94 06 001; test: as above; parameters: Coloration strength: key to the marks not given beside the values; details: 50 mg/l, 24 h 37° C.
Method: as §1

[18] = system: Shigella boydii 00 04 212; test: as above; parameters: Coloration strength: key to the marks not given beside the values; details: 50 mg/l, 24 h 37° C.
Method: as §1

[19] = system: Serratia marcescens NCTC 10 211; test: Peptidase detection on Columbia medium (Example 2); parameters: key to Growth: NG: No growth; 0.5: weak growth; 1: moderate growth; 2: good growth; details: 40 mg in 400 ml Columbia; 24 h 37° C.
Method: (§2) The 6 media were distributed into Petri dishes 90 mm in diameter, in a proportion of 20 ml per dish.
(§3) Seventeen strains of microorganisms stemming from collections and belonging to various species of bacteria and yeasts are inoculated in spots of approximately 10 000 colony-forming units.
(§4) The media are incubated for 24 hours at 37° C., and then the colonies formed are examined visually, with or without the addition of acid and under a UV lamp at 365 nm.

[20] = system: Yersinia enterocolitica NCTC 11 176; test: Peptidase detection on Columbia medium (Example 2); parameters: key to Growth: NG: No growth; 0.5: weak growth; 1: moderate growth; 2: good growth; details: 40 mg in 400 ml Columbia; 24 h 37° C.
Method: as §2, §3, §4

[21] = system: Providencia rettgeri NCTC 7 475; test: Peptidase detection on Columbia medium (Example 2); parameters: key to Growth: NG: No growth; 0.5: weak growth; 1: moderate growth; 2: good growth; details: 40 mg in 400 ml Columbia; 24 h 37° C.
Method: as §2, §3, §4

[22] = system: Enterococcus faecium NCTC 7 171; test: Peptidase detection on Columbia medium (Example 2); parameters: key to Growth: NG: No growth; 0.5: weak growth; 1: moderate growth; 2: good growth; key to Fluo. / Color / Color post-acid.: —: no color; details: 40 mg in 400 ml Columbia; 24 h 37° C.
Method: as §2, §3, §4

[23] = system: Staphylococcus epidermidis NCTC 11 047; test: Peptidase detection on Columbia medium (Example 2); parameters: key to Growth: NG: No growth; 0.5: weak growth; 1: moderate growth; 2: good growth; key to Fluo. / Color / Color post-acid.: —: no color; details: 40 mg in 400 ml Columbia; 24 h 37° C.
Method: as §2, §3, §4

[24] = system: Staphylococcus aureus NCTC 11 939; test: Peptidase detection on Columbia medium (Example 2); parameters: key to Growth: NG: No growth; 0.5: weak growth; 1: moderate growth; 2: good growth; key to Fluo. / Color / Color post-acid.: —: no color; details: 40 mg in 400 ml Columbia; 24 h 37° C.
Method: as §2, §3, §4

[25] = system: Candida glabrata NCPF 3 943; test: Peptidase detection on Columbia medium (Example 2); parameters: key to Growth: NG: No growth; 0.5: weak growth; 1: moderate growth; 2: good growth; key to Fluo. / Color / Color post-acid.: —: no color; details: 40 mg in 400 ml Columbia; 24 h 37° C.
Method: as §2, §3, §4

## Nc1ccc(C=Cc2ccnc3ccccc23)cc1
[1]
  Color: Orange
  Coloration strength: ++
[1]; control C: ++
  Growth: ++
[2]
  Color: Orange
  Coloration strength: ++
[2]; control C: ++
  Growth: ++
[3]
  Color: Orange
  Coloration strength: ++
[3]; control C: ++
  Growth: ++
[4]
  Color: Orange
  Coloration strength: ++
[4]; control C: ++
  Growth: ++
[5]
  Color: Orange
  Coloration strength: ++
[5]; control C: ++
  Growth: ++
[6]
  Color: Orange
  Coloration strength: ++
[6]; control C: ++
  Growth: ++
[7]
  Color: Orange
  Coloration strength: ++
[7]; control C: ++
  Growth: ++
[8]
  Color: Orange
  Coloration strength: ++
[8]; control C: ++
  Growth: ++
[9]
  Color: Orange
  Coloration strength: ++
[9]; control C: ++
  Growth: ++
[10]
  Color: Orange
  Coloration strength: ++
[10]; control C: ++
  Growth: ++
[11]
  Color: Orange
  Coloration strength: ++
[11]; control C: ++
  Growth: ++
[12]
  Color: Orange
  Coloration strength: ++
[12]; control C: ++
  Growth: ++
[13]
  Color: Orange
  Coloration strength: ++
[13]; control C: ++
  Growth: ++
[14]
  Color: Orange
  Coloration strength: ++
[14]; control C: ++
  Growth: ++
[15]
  Color: Orange
  Coloration strength: ++
[15]; control C: ++
  Growth: ++
[16]
  Color: Orange
  Coloration strength: ++
[16]; control C: ++
  Growth: +
[17]
  Color: Orange
  Coloration strength: ++
[17]; control C: ++
  Growth: ++
[18]
  Color: Orange
  Coloration strength: ++
[18]; control C: ++
  Growth: ++

## C[C@H](N)C(=O)N[C@@H](C)C(=O)N[C@@H](C)C(=O)Nc1ccc(C=Cc2cc[n+](C)c3ccccc23)cc1.Cl.[Cl-] [Tri-Ala-ASQM^+, L-alanyl-L-alanyl-L-alanyl-4-(4′-amidostyryl)-N-methylquinolinium (dichloride)]
[19]
  Color: Orange
  Growth: 2
[20]
  Growth: 2
[21]
  Growth: 2
[22]
  Color: —
  Growth: 2
[23]
  Color: —
  Growth: 2
[24]
  Color: —
  Growth: 2
[25]
  Color: —
  Growth: 2

From patent publication US8592174B2, “Peptidase substrates” (bioMérieux, S.A., priority 2009, dated 2013)
